Measured values reported in patent US9572890B2, “Oral formulations of mitochondrially-targeted antioxidants and their preparation and use” (MITOTECH SA, priority 2011, dated 2017).

How the values were obtained:
[1] = Storage stability of reduced SkQ1H2 formulations (Example 9); type: physicochemical
Experimental: The sample also can be stabilized by being dissolved in any deoxygenated anhydrous and aprotic solvents.
The stability of SkQ1H2 in the prepared composition was investigated by storage at 4° C. in darkness (Table 12).
The stability of SkQ1H2 in the prepared composition was investigated by storage at 60° C. in darkness (Table 13).
The yield of SkQ1H2 was 2 g (approx 100% yield) in the form of light powder. The stability results are shown below (Table 14 and Table 15).
The stability of SkQ1H2 in the prepared composition was investigated by storage at 60° C. in darkness (Table 16).
The stability of SkQ1H2 in the compositions prepared by both methods was investigated by storage at 60° C. and 4° C. in darkness (Table 17).
The stability of SkQ1H2 in compositions prepared by Methods 3 and 4 was investigated by storage at 60° C. in darkness (Table 18).
The stability of SkQ1H2 in compositions prepared by both methods was investigated by storage at 60° C. in darkness (Table 18).
The stability of SkQ1H2 in the prepared solution was investigated by storage at RT in darkness (Table 19).
The stability of SkQ1H2 in the prepared solution was investigated by storage at 60° C. in darkness (Table 20).

[2] = Stability of MTAs in liquid solvents (degradation rate); type: physicochemical; conditions: 400 mkM in 50% Glycerol
Experimental: Liquid solvents were also tested for their ability to stabilize representative MTAs SkQ1 and SkQR1. The solvents tested were water solutions of glycerol (10% to 100%), 50% lactulose, and 1,2-propylene glycol (10% to 100%, at 60° C.). Some representative results are shown below (Table 1).

[3] = SkQ1H2 in 55% EtOH in water, 0 h
[4] = SkQ1H2 in 55% EtOH in water, 0.5 h
[5] = SkQ1H2 in 55% EtOH in water, 1.48 h
[6] = SkQ1H2 in 55% EtOH in water, 2.8 h
[7] = SkQ1H2 in 55% EtOH in water, 3.44 h
[8] = SkQ1H2 in 55% EtOH in water, 4.37 h
[9] = SkQ1H2 in 55% EtOH in water, 23.23 h
[10] = SkQ1H2 in 55% EtOH in water, 143.45 h (~6 days)
[11] = SkQ1H2 in CH2Cl2, 143.45 h (~6 days)
[12] = SkQ1H2 powder, Storage at 60° C., day 0
[13] = SkQ1H2 powder, Storage at 60° C., day 5
[14] = SkQ1H2 powder, Storage at 60° C., day 7
[15] = SkQ1H2 powder, Storage at 60° C., day 11
[16] = SkQ1H2 powder, Storage at 60° C., day 17
[17] = SkQ1H2 powder, Storage at 60° C., day 28
[18] = SkQ1H2 powder, Storage at RT, day 0
[19] = SkQ1H2 powder, Storage at RT, day 3
[20] = SkQ1H2 powder, Storage at RT, day 5
[21] = SkQ1H2 powder, Storage at RT, day 7
[22] = SkQ1H2 powder, Storage at RT, day 11
[23] = SkQ1H2 powder, Storage at RT, day 17
[24] = SkQ1H2 powder, Storage at RT, day 28
[25] = SkQ1H2 with ascorbic acid (5 eq) and sorbite (30 wt parts), solid, time not given
[26] = SkQ1H2 with ascorbic acid (5 eq) and sorbite in 30% 1,2-propylene glycol, 60° C. in darkness, day 0
[27] = SkQ1H2 with ascorbic acid (5 eq) and sorbite in 30% 1,2-propylene glycol, 60° C. in darkness, day 3
[28] = SkQ1H2 with ascorbic acid (5 eq) and sorbite in 30% 1,2-propylene glycol, 60° C. in darkness, day 14
[29] = SkQ1H2 with ascorbic acid (5 eq) and sorbite in 30% 1,2-propylene glycol, 60° C. in darkness, day 27
[30] = SkQ1H2 with ascorbic acid (10 eq) in 55% EtOH, RT in darkness, 0 h
[31] = SkQ1H2 with ascorbic acid (10 eq) in 55% EtOH, RT in darkness, 1.5 h
[32] = SkQ1H2 with ascorbic acid (10 eq) in 55% EtOH, RT in darkness, 68 h (~3 days)
[33] = SkQ1H2 with ascorbic acid (10 eq) in 55% EtOH, RT in darkness, 118 h (~5 days)
[34] = SkQ1H2 with ascorbic acid (10 eq) in 55% EtOH, RT in darkness, 165 h (~7 days)
[35] = SkQ1H2 with sorbite (30 wt parts), solid, 60° C. in darkness, day 0
[36] = SkQ1H2 with sorbite (30 wt parts), solid, 60° C. in darkness, day 4
[37] = SkQ1H2 with sorbite (30 wt parts), solid, 60° C. in darkness, day 7
[38] = SkQ1H2 with sorbite (30 wt parts), solid, 60° C. in darkness, day 11
[39] = SkQ1H2 with sorbite (30 wt parts), solid, 60° C. in darkness, day 15
[40] = SkQ1H2 with sorbite (30 wt parts), solid, 60° C. in darkness, day 28

Structure (SMILES): Cc1c(O)cc(CCCCCCCCCC[P+](c2ccccc2)(c2ccccc2)c2ccccc2)c(O)c1C [SkQ1H2]
- stability of isolated SkQ1H2 light powder ([1]; 1 month at RT or several months at 4° C. in darkness under inert atmosphere without humidity access): excellent stability
- SkQ1, % [1, 3]: 2.21%
- SkQ1H2, % [1, 3]: 97.79%
- SkQ1, % [1, 4]: 9.21%
- SkQ1H2, % [1, 4]: 90.79%
- SkQ1, % [1, 5]: 14.76%
- SkQ1H2, % [1, 5]: 85.24%
- SkQ1, % [1, 6]: 32.57%
- SkQ1H2, % [1, 6]: 67.43%
- SkQ1, % [1, 7]: 47.83%
- SkQ1H2, % [1, 7]: 52.17%
- SkQ1, % [1, 8]: 56.57%
- SkQ1H2, % [1, 8]: 43.43%
- SkQ1, % [1, 9]: 82.39%
- SkQ1H2, % [1, 9]: 16.55%
- SkQ1, % [1, 10]: 77.23%
- SkQ1H2, % [1, 10]: 9.63%
- SkQ1, % ([1]; SkQ1H2 in CH2Cl2, 0 h): 2.21%
- SkQ1H2, % ([1]; SkQ1H2 in CH2Cl2, 0 h): 97.79%
- SkQ1, % ([1]; SkQ1H2 in CH2Cl2, 0.5 h): 4.01%
- SkQ1H2, % ([1]; SkQ1H2 in CH2Cl2, 0.5 h): 95.99%
- SkQ1, % ([1]; SkQ1H2 in CH2Cl2, 1.48 h): 5.68%
- SkQ1H2, % ([1]; SkQ1H2 in CH2Cl2, 1.48 h): 94.32%
- SkQ1, % ([1]; SkQ1H2 in CH2Cl2, 2.8 h): 6.42%
- SkQ1H2, % ([1]; SkQ1H2 in CH2Cl2, 2.8 h): 93.58%
- SkQ1, % ([1]; SkQ1H2 in CH2Cl2, 3.44 h): 5.57%
- SkQ1H2, % ([1]; SkQ1H2 in CH2Cl2, 3.44 h): 94.43%
- SkQ1, % ([1]; SkQ1H2 in CH2Cl2, 4.37 h): 7.18%
- SkQ1H2, % ([1]; SkQ1H2 in CH2Cl2, 4.37 h): 92.82%
- SkQ1, % ([1]; SkQ1H2 in CH2Cl2, 23.23 h): 9.30%
- SkQ1H2, % ([1]; SkQ1H2 in CH2Cl2, 23.23 h): 89.61%
- SkQ1, % [1, 11]: 16.53%
- SkQ1H2, % [1, 11]: 82.11%
- SkQ1, % [1, 12]: 0.75%
- SkQ1H2, % [1, 12]: 99.2%
- SkQ1, % [1, 13]: 0.55%
- SkQ1H2, % [1, 13]: 99.45%
- SkQ1, % [1, 14]: 0%
- SkQ1H2, % [1, 14]: 100%
- SkQ1, % [1, 15]: 0.19%
- SkQ1H2, % [1, 15]: 99.76%
- SkQ1, % [1, 16]: 1.24%
- SkQ1H2, % [1, 16]: 98.61%
- SkQ1, % [1, 17]: 11.04%
- SkQ1H2, % [1, 17]: 88.7%
- SkQ1, % [1, 18]: 1.01%
- SkQ1H2, % [1, 18]: 98.99%
- SkQ1, % [1, 19]: 0.66%
- SkQ1H2, % [1, 19]: 99.34%
- SkQ1, % [1, 20]: 0.63%
- SkQ1H2, % [1, 20]: 99.37%
- SkQ1, % [1, 21]: 0.71%
- SkQ1H2, % [1, 21]: 99.14%
- SkQ1, % [1, 22]: 0.83%
- SkQ1H2, % [1, 22]: 99.12%
- SkQ1, % [1, 23]: 0.28%
- SkQ1H2, % [1, 23]: 99.49%
- SkQ1, % [1, 24]: 0.50%
- SkQ1H2, % [1, 24]: 99.45%
- number of impurities with content >0.5% ([1]; SkQ1H2 with ascorbic acid (5 eq) and sorbite (30 wt parts), solid, 1 year at 4° C. in darkness): 0
- number of impurities with content >0.5% ([1]; SkQ1H2 with ascorbic acid (5 eq) and sorbite (30 wt parts), solid, 20 days at 60° C. in darkness): 0
- SkQ1, % [1, 25]: 1.209%
- SkQH2, % [1, 25]: 97.753%
- SkQ1, % [1, 26]: 0.18%
- SkQH2, % [1, 26]: 99.82%
- SkQ1, % [1, 27]: 1.03%
- SkQH2, % [1, 27]: 98.67%
- SkQ1, % [1, 28]: 28.34%
- SkQH2, % [1, 28]: 69.51%
- SkQ1, % [1, 29]: 51.9%
- SkQH2, % [1, 29]: 3.2%
- SkQ1, % [1, 30]: 0.27%
- SkQ1H2, % [1, 30]: 99.73%
- SkQ1, % [1, 31]: 0.93%
- SkQ1H2, % [1, 31]: 99.07%
- SkQ1, % [1, 32]: 0.59%
- SkQ1H2, % [1, 32]: 99.05%
- SkQ1, % [1, 33]: 0.31%
- SkQ1H2, % [1, 33]: 99.69%
- SkQ1, % [1, 34]: 0.26%
- SkQ1H2, % [1, 34]: 99.74%
- SkQ1, % [1, 35]: 0.61%
- SkQ1H2, % [1, 35]: 99.01%
- SkQ1, % [1, 36]: 8.7%
- SkQ1H2, % [1, 36]: 90.8%
- SkQ1, % [1, 37]: 9.4%
- SkQ1H2, % [1, 37]: 90.2%
- SkQ1, % [1, 38]: 10.7%
- SkQ1H2, % [1, 38]: 88.8%
- SkQ1, % [1, 39]: 10.4%
- SkQ1H2, % [1, 39]: 89.1%
- SkQ1, % [1, 40]: 5.3%
- SkQ1H2, % [1, 40]: 42.9%
- oxidation to SkQ1 ([1]; exposed to air or wet atmosphere or dissolved in water or any protonic solvent): quickly oxides

Structure (SMILES): COc1cc2c(cc1OC)-c1c(CC(=O)OCCCCCCCC3=CC(=O)C(C)=C(C)C3=O)c3ccc(OC)c(OC)c3c[n+]1CC2 [SkQBP1]
- Degradation rate, percent per day [2]: 0.08 percent per day
